Laboratory results taken from patent US20250002463A1, “NEW SALT FORMS OF AMILORIDE AND ITS DERIVATIVES FOR PHARMACEUTICAL USE” (PSOMRI Holding AB, priority 2021, published 2025).
Values joined by “and” are separate entries in the source; they are usually repeats but may differ in a detail not shown here. Identical values can stand only once. Values belong to the compound of their own block, whether it stands above or below them.

Tests used:
[1] = Polymorphism: solid forms found in salt screen by HT-XRPD; type: physicochemical; details: DME, THF; for Polymorphism: Example 1 salt screen in MeOH; for salt polymorphs found from all three crystallization solvents: Example 2, MeOH
Method: (§1) The precipitated solids were analyzed by high throughput X-ray powder diffractometry (HT XRPD). Liquid phases (both solutions and mother liquors) were evaporated at ambient conditions and the residual solids were analyzed by HT XRPD.
The salt screen experiments were carried out in methanol (MeOH), 1,2-dimethoxyethane (DME) and tetrahydrofuran (THF).

[2] = Physical stability under Accelerated Aging Conditions (AAC, 40° C./75% RH, 2 days), HT-XRPD; details: for Physically stable after AAC: Example 1; for Physical Stability: AAC 40° C./75% RH, 2 days, re-analyzed by HT-XRPD
[3] = Hygroscopicity by Dynamic Vapor Sorption (DVS); type: physicochemical; details: for classification of hygroscopic behaviour: based on water vapour uptake at 25° C./80% RH
Method: The hygroscopic behaviour of the salts was evaluated through Dynamic Vapor Sorption (DVS) measurements with an RH profile 40-95-0-40% at 25° C. and a dm/dt of 0.002. The classification of the hygroscopic behaviour is based on the water vapour uptake at 25° C./80% RH in first adsorption cycle of sorption isotherm.

[4] = Crystallinity of salt forms by HT-XRPD; type: physicochemical; details: salt screen solid forms
Method: as §1
XRPD patterns were obtained using the Ardena T2 high-throughput XRPD set-up. The plates were mounted on a Bruker General Area Detector Diffraction System (GADDS) equipped with a VÅNTEC-500 gas area detector corrected for intensity and geometric variations. The calibration of the measurement accuracy (peaks position) was performed using NIST SRM1976 standard (Corundum).
No background subtraction or curve smoothing was applied to the XRPD patterns.

[5] = Intrinsic dissolution rate (rotating disc, μDiss) in water and FaSSIF; type: physicochemical; details: for IDR (mg/cm^2/min) Individual: single disc
Method: Rotating disc intrinsic dissolution determinations were performed with a μDiss apparatus (Pion, USA) equipped with 6 independent glass fiber probes each connected to a diode area. Before the start of the experiment the probes were calibrated using the spectrum of a Mercury 362 nm pen-ray lamp. Discs were prepared in a passivated aluminum dye with a mini-IDR press (Heath Scientific, UK).
Six dilutions of benzamil lactate salt were prepared in the dissolution media in the range from 0 to 0.5 mg/mL, and the solutions were stirred with a cross-shaped magnetic stirrer. These dilutions were used for the calibration curve which is used for the calculation of the amount of benzamil in solution. Moreover, the solutions were used to select the wavelength at which the samples were to be measured and to select the proper path length.
The dyes were placed in their Teflon holder magnet stirrer and placed into 20 mL glass vials. Before to the sample measurement, a blank of each media was taken in the respective channel. The experiment started by the gentle addition of the pre-warmed dissolution media. Vials were incubated at 37° C. under continuous stirring at 100 rpm for a maximum of 4 h. UV absorption was measured with the in-line probes at regular intervals. Upon completion of the experiment the pH of the solution was determined. Concentrations of API in solution were calculated with use of the calibration curve and plotted against time. Dissolution rates were calculated over the linear parts of the curves. All dissolution rate experiments were done in triplicate except for TFA1 which were done in duplicate due to the lack of material.

[6] = Physio-chemical stability study, open container 25° C./60% RH and 40° C./75% RH (UPLC, TGMS, HT-XRPD); type: physicochemical; details: for UPLC 1 week / UPLC 3 weeks / UPLC 3 days: chemical purity
Method: Open container at 25° C. and 60% RH • 2. Open container at 40° C. and 75% RH

[7] = Kinetic and thermodynamic solubility in water at 37° C. (1 h and 18 h, UPLC)
[8] = Example 2, 40° C./75% RH for 2 days
[9] = open container 25° C. and 60% RH
[10] = open container 40° C. and 75% RH
[11] = water, 37° C., 30 mg/ml suspension

Compound: CC(=O)O.NC(=NC(=O)c1nc(Cl)c(N)nc1N)NCc1ccccc1 [ACA2]
- Polymorphism [1]: Yes
- Physically stable after AAC ([2]; 40° C./75% RH for 2 days): physically stable and Yes

Compound: N=C(NCc1ccccc1)NC(=O)c1nc(Cl)c(N)nc1N.O=C(O)c1ccccc1 [BNZ1]
- Polymorphism [1]: Yes
- water vapour uptake ([3]; 25° C./80% RH, first adsorption cycle): 0.1%
- classification of hygroscopic behaviour [3]: non hygroscopic
- Physically stable after AAC ([2]; 40° C./75% RH for 2 days): physically stable and Yes

Compound: N=C(NCc1ccccc1)NC(=O)c1nc(Cl)c(N)nc1N.O=C(O)c1ccccc1 [BNZ2]
- Polymorphism [1]: Yes
- classification of hygroscopic behaviour [3]: slightly hygroscopic
- Physically stable after AAC ([2]; 40° C./75% RH for 2 days): physically stable and Yes

Compound: NC(=NC(=O)c1nc(Cl)c(N)nc1N)NCc1ccccc1.O=C(O)c1ccccc1 [BNZ3]
- Polymorphism [1]: Yes
- Physically stable after AAC ([2]; 40° C./75% RH for 2 days): physically stable and Yes

- Polymorphism [1]: Yes
- Physically stable after AAC ([2]; 40° C./75% RH for 2 days): No
Compound: Cl.N/C(=N\C(=O)c1nc(Cl)c(N)nc1N)NCc1ccccc1 [Benzamil HCl SM1, reference compound]

Compound: NC(=NC(=O)c1nc(Cl)c(N)nc1N)NCc1ccccc1.O=S(=O)(O)c1cccc2c(S(=O)(=O)O)cccc12 [NDS1]
- salt polymorphs found from all three crystallization solvents [1]: only one salt polymorph
- Crystallinity [4]: Good
- Physical Stability [2]: Stable
- physical stability upon exposure to AAC [2, 8]: physically stable

Compound: NC(=NC(=O)c1nc(Cl)c(N)nc1N)NCc1ccccc1.O=C(O)c1cccnc1 [NIC1]
- salt polymorphs found from all three crystallization solvents [1]: only one salt polymorph
- Crystallinity [4]: Good
- Physical Stability [2]: Stable
- physical stability upon exposure to AAC [2, 8]: physically stable

Compound: NC(=NC(=O)c1nc(Cl)c(N)nc1N)NCc1ccccc1.O=[N+]([O-])O [NIT5]
- Polymorphism [1]: Yes
- classification of hygroscopic behaviour [3]: slightly hygroscopic

Compound: NC(=NC(=O)c1nc(Cl)c(N)nc1N)NCc1ccccc1.O=C(O)c1cc2ccccc2c(Cc2c(O)c(C(=O)O)cc3ccccc23)c1O [PAM1]
- Crystallinity [4]: Obtained as mixture
- Physical Stability [2]: Stable
- physical stability upon exposure to AAC [2, 8]: physically stable

Compound: NC(=NC(=O)c1nc(Cl)c(N)nc1N)NCc1ccccc1.O=C(O)c1cc2ccccc2c(Cc2c(O)c(C(=O)O)cc3ccccc23)c1O [PAM2]
- Crystallinity [4]: Poor
- Physical Stability [2]: Stable
- physical stability upon exposure to AAC [2, 8]: physically stable

Compound: NC(=NC(=O)c1nc(Cl)c(N)nc1N)NCc1ccccc1.O=P(O)(O)O [PHO2]
- Polymorphism [1]: Yes
- classification of hygroscopic behaviour [3]: slightly hygroscopic
- Physically stable after AAC ([2]; 40° C./75% RH for 2 days): physically stable and Yes

Compound: CC(C)(C)C(=O)O.NC(=NC(=O)c1nc(Cl)c(N)nc1N)NCc1ccccc1 [PIV1]
- salt polymorphs found from all three crystallization solvents [1]: only one salt polymorph
- Crystallinity [4]: Good
- Physical Stability [2]: Stable
- physical stability upon exposure to AAC [2, 8]: physically stable

Compound: CCC(=O)O.NC(=NC(=O)c1nc(Cl)c(N)nc1N)NCc1ccccc1 [PRO1]
- Crystallinity [4]: Good
- Physical Stability [2]: Unstable

Compound: CCC(=O)O.NC(=NC(=O)c1nc(Cl)c(N)nc1N)NCc1ccccc1 [PRO3]
- Crystallinity [4]: Moderate
- Physical Stability [2]: Unstable

Compound: CCC(=O)O.NC(=NC(=O)c1nc(Cl)c(N)nc1N)NCc1ccccc1 [PRO4]
- Crystallinity [4]: Obtained as mixture
- Physical Stability [2]: Unstable

Compound: NC(=NC(=O)c1nc(Cl)c(N)nc1N)NCc1ccccc1.O=C(O)c1ccccc1O [SAL1]
- Crystallinity [4]: Good
- Physical Stability [2]: Stable
- physical stability upon exposure to AAC [2, 8]: physically stable

Compound: NC(=NC(=O)c1nc(Cl)c(N)nc1N)NCc1ccccc1.O=C(O)c1ccccc1O [SAL3]
- Crystallinity [4]: Moderate
- Physical Stability [2]: Unstable-

Compound: CCCCCCCCCCCCCCCCCC(=O)O.NC(=NC(=O)c1nc(Cl)c(N)nc1N)NCc1ccccc1 [STE1]
- Crystallinity [4]: Obtained as mixture
- Physical Stability [2]: Stable
- physical stability upon exposure to AAC [2, 8]: physically stable

Compound: CCCCCCCCCCCCCCCCCC(=O)O.NC(=NC(=O)c1nc(Cl)c(N)nc1N)NCc1ccccc1 [STE2]
- Crystallinity [4]: Poor
- Physical Stability [2]: Stable
- physical stability upon exposure to AAC [2, 8]: physically stable

Compound: NC(=NC(=O)c1nc(Cl)c(N)nc1N)NCc1ccccc1.NC(=NC(=O)c1nc(Cl)c(N)nc1N)NCc1ccccc1.O=S(=O)(O)O [SUL1]
- Polymorphism [1]: Yes
- Physically stable after AAC ([2]; 40° C./75% RH for 2 days): physically stable and Yes

Compound: N=C(NCc1ccccc1)NC(=O)c1nc(Cl)c(N)nc1N.O=C(O)C(O)C(O)C(=O)O [TAR1]
- Polymorphism [1]: Unclear
- Physically stable after AAC ([2]; 40° C./75% RH for 2 days): physically stable
- Physically stable after AAC ([2]; 40° C./75% RH for 2 days, listed as TAR1 pc): Yes

- IDR (mg/cm^2/min) Average ([5]; FaSSIF, 37° C., 100 rpm): 0.14 ± 0.004 mg/cm^2/min
- IDR (mg/cm^2/min) Average ([5]; Water, 37° C., 100 rpm): 0.13 ± 0.1 mg/cm^2/min
- state of tablet ([5]; after about 4 h, 37° C.): still not completely dissolved
- IDR difference to LAC1 ([5]; in FaSSIF): about 4 fold
- Intrinsic Dissolution Rate (IDR) ([5]; water, 37° C., 100 rpm, linear part (LAC1 1 to 36 min; TFA 10-100 min)): 0.13±0.01 mg/cm^2/min
- UPLC t0 ([6]; chemical purity at start of stability study): 99.1% and 100%
- UPLC 1 week [6, 9]: 99.9% and 100%
- UPLC 3 weeks [6, 9]: 100%
- UPLC 3 days [6, 9]: 99.9% and 100%
- UPLC 1 week [6, 10]: 100%
- UPLC 3 weeks [6, 10]: 100%
- UPLC 3 days [6, 10]: 99.9% and 100%
- physical and chemical stability ([6]; incubation for 3 weeks at 25° C./60% RH and 40° C./75% RH): physically and chemically stable
- TGMS 1 week [6, 9]: 0.1% water and <0.1 % water
- XRPD 1 week [6, 9]: TFA2 and TFA1
- TGMS 3 weeks [6, 9]: <0.1% water
- XRPD 3 weeks [6, 9]: TFA2
- XRPD 3 days [6, 9]: TFA2 and TFA1
- TGMS 1 week [6, 10]: 0.1% water and <0.1 % water
- XRPD 1 week [6, 10]: TFA2 and TFA1
- TGMS 3 weeks [6, 10]: <0.1% water
- XRPD 3 weeks [6, 10]: TFA2
- XRPD 3 days [6, 10]: TFA2 and TFA1
- XRPD t0 ([6]; start of stability study): TFA2 and TFA1
- Physically stable? ([2]; AAC, 2 days at 40° C. and 75% RH, solids from thermocycling): Yes
- physical stability upon exposure to AAC ([2]; Example 3 thermocycling solids, 2 days at 40° C. and 75% RH): physically stable
- XRPD 1 h Amb. ([7]; residual solid after 1 h in water at 37° C., ambient-dried): TFA2
- XRPD 1 h Vac. ([7]; residual solid after 1 h in water at 37° C., vacuum-dried): TFA2
- XRPD 18 h Amb. ([7]; residual solid after 18 h in water at 37° C., ambient-dried): TFA2
- XRPD 18 h Vac. ([7]; residual solid after 18 h in water at 37° C., vacuum-dried): TFA2
- pH after 10 min [7, 11]: 6.0
- pH after 1 h [7, 11]: 6.2
- Solubility (mg/mL) 1 h ([7]; water, 37° C., 1 h (kinetic), UPLC): 2.6 mg/mL
- Solubility (mg/mL) 18 h ([7]; water, 37° C., 18 h (thermodynamic), UPLC): 1.6 mg/mL
Compound: NC(=NCc1ccccc1)NC(=O)c1nc(Cl)c(N)nc1N.O=C(O)C(F)(F)F [TFA2]
- IDR (mg/cm^2/min) Individual ([5]; FaSSIF, 37° C., 100 rpm): 0.145 mg/cm^2/min and 0.143 mg/cm^2/min and 0.138 mg/cm^2/min
- IDR (mg/cm^2/min) Individual ([5]; Water, 37° C., 100 rpm): 0.116 mg/cm^2/min and 0.143 mg/cm^2/min and 0.130 mg/cm^2/min

Compound: Cc1ccc(S(=O)(=O)O)cc1.NC(=NC(=O)c1nc(Cl)c(N)nc1N)NCc1ccccc1 [TOS1]
- Polymorphism [1]: Unclear
- classification of hygroscopic behaviour [3]: slightly hygroscopic
- Physically stable after AAC ([2]; 40° C./75% RH for 2 days): physically stable and Yes

Compound: CCCCC(=O)O.NC(=NC(=O)c1nc(Cl)c(N)nc1N)NCc1ccccc1 [VAL1]
- Crystallinity [4]: Good
- Physical Stability [2]: Stable
- physical stability upon exposure to AAC [2, 8]: physically stable

- Crystallinity [4]: Poor
- Physical Stability [2]: Unstable
Compound: PAM3
